Data taken from EP0094644A1, “Utilization of a cholecalciferol derivative” (F. HOFFMANN-LA ROCHE & CO. Aktiengesellschaft, priority 1982, dated 1983).

What was measured:
Type in all cases: in vivo
Weissen Leghorn-Küken [1] = assay: Intestinal calcium absorption in chicks (serum 45Ca); details: for Serum ^45Ca: serum 45 min after isotope
Text: b) Intestinale Calcium-Absorption bei Küken
Weissen Leghorn-Küken wird während 21 Tagen unter UV-freier Bestrahlung eine Vitamin D-arme Diät gegeben. Eine Einzeldosis der Testverbindung, gelöst in Propylenglykol, wird den Tieren oral verabreicht. Danach werden zu verschiedenen Zeitpunkten 2 µCi ^45 Ca (Chlorid) oral verabreicht und die Serumradioaktivität 45 Minuten nach Verabreichung des Isotops gemessen. In jeder Versuchsperiode werden Kontrolltiere verwendet, denen nur das Vehikel verabreicht wird. In jeder Behandlungsgruppe und jeder Kontrollgruppe werden 10 oder 11 Küken verwendet.

Weissen Leghorn-Küken [2] = assay: Antirachitic activity in chicks (tibia ash weight); details: for Mittleres Tibiaaschengewicht: 21 days, vitamin D-deficient diet, vehicle control 120,7 ± 5,9
Text: a) Antirachitische Aktivität
Weissen Leghorn-Küken wird unter UV-freier Beleuchtung eine Vitamin D-arme, 1% Calcium und 0,7% Phosphor enthaltende Diät gegeben. Die in Propylenglykol gelöste Testverbindung wird während 21 Tagen den am Anfang des Versuchs 1 oder 2 Tage alten Küken oral verabreicht. Kontrolltiere werden mit dem Vehikel behandelt. Die Küken werden am Tag nach dem letzten Behandlungstag seziert und das Tibiaaschengewicht wird ermittelt. Es werden 9 oder 10 Küken für jede Behandlungsgruppe und für die Kontrollgruppe verwendet. Die mittleren Tibiaaschengewichte ausgedrückt in mg sind in der nachfolgenden Tabelle I angegeben.

[3] = system: Männliche Charles River Ratten; assay: Prevention of EHDP-induced mineralisation block in rats (epiphyseal plate width); details: for Mittlere Breite der Epiphysenplatte: 10 days with EHDP 2 mg/Ratte s.c., EHDP alone 1182 ± 51, no EHDP 440 ± 2
Experimental: c) Verhütung der durch EHDP-induzierten Blockierung der Mineralisierung bei Ratten
Männliche Charles River Ratten werden 10 Tage mit Dinatrium-äthan-1-hydroxy-1,1-diphosphonat (EHDP) behandelt. Die Verbindung wird in destilliertem Wasser in einer Konzentration von 2 mg/0,2 ml/Ratte jeden Tag subcutan verabreicht. Die fluorierte Verbindung wird in Propylenglykol jeden Tag oral verabreicht. Am Tag nach der letzten Behandlung werden die Ratten seziert und deren Tibia durch Silberimprägnierung der Knochensalze behandelt. Die Breite der Epiphysenplatte wird mit einem Mikroskop gemessen. Zur Ermittlung der Aktivität wird die dosisabhängige Verengerung der durch EHDP-Induktion erweiterten Epiphysenplatte gemessen. In jeder Behandlungsgruppe werden 10 Ratten verwendet. Es werden auch positive (EHDP allein) und negative (Vehikel allein) Kontrollgruppen von 10 Ratten in jedem Versuch verwendet.

[4] = 100 ng single oral dose, 24 Std., vehicle 992 ± 81
[5] = 100 ng single oral dose, 48 Std., vehicle 769 ± 90

| Structure (SMILES) | Serum ^45Ca (Weissen Leghorn-Küken [1]; [4]) | Serum ^45Ca (Weissen Leghorn-Küken [1]; [5]) | Serum ^45Ca (Weissen Leghorn-Küken [1]; 200 ng single oral dose, 72 Std., vehicle 647 ± 69) | Mittleres Tibiaaschengewicht (Weissen Leghorn-Küken [2]; 1 ng/Küken/Tag oral) | Mittleres Tibiaaschengewicht (Weissen Leghorn-Küken [2]; 3 ng/Küken/Tag oral) | Mittleres Tibiaaschengewicht (Weissen Leghorn-Küken [2]; 10 ng/Küken/Tag oral) | Mittleres Tibiaaschengewicht (Weissen Leghorn-Küken [2]; 30 ng/Küken/Tag oral) | antirachitische Aktivität (Weissen Leghorn-Küken [2]; summary in words of Tabelle I) | Serum ^45Ca (Weissen Leghorn-Küken [1]; 100 ng single oral dose, 72 Std., vehicle 647 ± 69) | Serum ^45Ca (Weissen Leghorn-Küken [1]; 100 ng single oral dose, 96 Std., vehicle 586 ± 70) | lang andauernde intestinale Calcium-Absorption (Weissen Leghorn-Küken [1]; duration after 100 ng Einzeldosis, oral) [Stunden] | Mittlere Breite der Epiphysenplatte ([3]; 1 ng/Ratte/Tag oral) [Mikron] | Mittlere Breite der Epiphysenplatte ([3]; 3 ng/Ratte/Tag oral) [Mikron] | Mittlere Breite der Epiphysenplatte ([3]; 10 ng/Ratte/Tag oral) [Mikron] | Mittlere Breite der Epiphysenplatte ([3]; 30 ng/Ratte/Tag oral) [Mikron] | Calcifizierung der Tibiaepiphysenplatte ([3]; EHDP-blocked rats, summary in words of Tabelle III) |
| --- | --- | --- | --- | --- | --- | --- | --- | --- | --- | --- | --- | --- | --- | --- | --- | --- |
| C=C1/C(=C\C=C2/CCC[C@]3(C)[C@@H]([C@H](C)CCCC(C)(C)O)CC[C@@H]23)C[C@@H](O)C[C@@H]1O [Verbindung A, 1a,25-Dihydroxycholecalciferol, reference compound] | 1800 ± 181 cpm/0,2 ml | 1006 ± 133 cpm/0,2 ml | 710 ± 62 cpm/0,2 ml | – | – | – | – | – | – | – | – | – | – | – | – | – |
| C=C1/C(=C\C=C2/CCC[C@]3(C)[C@@H]([C@H](C)CCC(F)(F)C(C)(C)O)CC[C@@H]23)C[C@@H](O)C[C@@H]1O [fluorierte Verbindung, 24,24-Difluor-la,25-dihydroxycholecalciferol] | 2064 ± 170 cpm/0,2 ml | 1539 ± 99 cpm/0,2 ml | – | 111,5 ± 4,7 mg | 151,1 ± 8,2 mg | 227,1 ± 8,2 mg | 244,8 ± 7,4 mg | beträchtliche antirachitische Aktivität | 1164 ± 90 cpm/0,2 ml | 998 ± 61 cpm/0,2 ml | 96 | 839 ± 18 | 674 ± 18 | 540 ± 16 | 412 ± 9 | die Calcifizierung der Tibiaepiphysenplatte bei EHDP-blockierten Ratten bewirkt |
